System: aged-impaired (AI) rats
Assay: Radial Arm Maze (RAM) task, spatial memory retention of aged-impaired rats
Assay type: in vivo, Long-Evans rats
Details: two-hour delay RAM
Experimental: FIG. 1 depicts the effects of administering levetiracetam on the spatial memory retention of ten aged-impaired rats (AI) in an eight-arm Radial Arm Maze (RAM) test. Six treatment conditions are employed: vehicle control, levetiracetam (1.25 mg/kg/day), levetiracetam (2.5 mg/kg/day), levetiracetam (5 mg/kg/day), levetiracetam (10 mg/kg/day) and levetiracetam (20 mg/kg/day). In the RAM task used, there is a one-hour delay between presentation of a subset of arms (5 arms available and 3 arms blocked) and completion of the eight-arm win-shift task (eight arms available). Rats are pre-treated 30-40 minutes before daily trials with a one-time drug/control treatment. The number of errors made by the rats during the retention phase is used as a measure of spatial memory retention. Errors are defined as instances when rats enter an arm from which food has already been retrieved in the pre-delay component of the trial or when rats re-visit an arm in the post-delay session that had already been visited. Paired t-tests are used to compare the number of errors between different doses of levetiracetam and vehicle control.
FIG. 2 depicts the effects of administering donepezil only and administering a combination of donepezil and levetiracetam on the spatial memory retention of eight aged-impaired rats (AI) in an eight-arm Radial Arm Maze (RAM) test. Four treatment conditions are employed: vehicle control, donepezil only (1 mg/kg/day), donepezil (2 mg/kg/day), and a combination of donepezil (1 mg/kg/day) and levetiracetam (2.5 mg/kg/day). In the RAM task used, there is a two-hour delay between presentation of a subset of arms (5 arms available and 3 arms blocked) and completion of the eight-arm win-shift task (eight arms available). Rats are pre-treated 30-40 minutes before daily trials with a one-time drug/control treatment. The number of errors made by the rats during the retention phase is used as a measure of spatial memory retention. Errors are defined as instances when rats enter an arm from which food has already been retrieved in the pre-delay component of the trial or when rats re-visit an arm in the post-delay session that have already been visited. Paired t-tests are used to compare the number of errors between different doses of drug treatment and vehicle control.
Aged, male Long-Evans rats were obtained at 8 to 9 months of age from Charles River Laboratories (Raleigh, N.C.) and housed in a vivarium until 24 to 26 months of age. All rats were individually housed at 25° C. and maintained on a 12 h light/dark cycle. Food and water were provided ad libitum unless noted otherwise. The rats were examined for health and pathogen-free status throughout the experiments, as well as necropsies at the time of killing.
All rats were screened in a standardized assessment of spatial cognition. This background assessment used the above-described well-established MWM protocol. […] The selected AI rats were tested for their memory of new spatial information in a Radial Arm Maze (RAM) task, under different drug/control treatment conditions: vehicle control, donepezil only, levetiracetam only, and a combination of donepezil and levetiracetam. The RAM task also extended the behavioral assessment to spatial memory using appetitive motivation. We used a protocol that allowed within-subject assessment across drugs at different doses and in combinations (Koh et al., Neuropsychopharmacology, epub. 1-10, (2009)).
The radial maze consisted of eight arms projecting from each side of an octagonal center platform, with food well located at the distal end of each arm. Plexiglasm blocks could be positioned to prevent entry into any arm. Extra-maze cues were provided in the room surrounding the maze and illumination was provided by an overhead light.

Question: For `COc1cc2c(cc1OC)C(=O)C(CC1CCN(Cc3ccccc3)CC1)C2` (stereo not shown) [donepezil, 2,3-dihydro-5,6-dimethoxy-2-((1-(phenylmethyl)-4-piperidinyl)methyl)-1H-inden-1-one], which “memory performance relative to vehicle control treatment” value (donepezil 1 mg/kg/day alone, t(7)=0, p=1.00) is on record?
Answer: does not significantly improve memory performance

Question: And the “average no. of errors ± standard error of the mean (SEM), retention test” value (donepezil 1 mg/kg/day i.p., AI rats n=8, vehicle control 2.88±0.67)?
Answer: 2.88±0.46

Question: What about the “memory performance relative to vehicle control treatment” value (donepezil 2 mg/kg/day alone, t(7)=0.91, p=0.930) of the same compound?
Answer: does not significantly improve memory performance

Question: And the “average no. of errors ± SEM, retention test” value (donepezil 2 mg/kg/day i.p., AI rats n=8, vehicle control 2.88±0.67)?
Answer: 2.81±0.43

— US20220265685A1, “METHODS AND COMPOSITIONS FOR IMPROVING COGNITIVE FUNCTION” (priority 2010, published 2022)
